Read-outs that look alike come from different tables or passages of the source.
Tests used:
[1] = system: patients with NDD CKD stage 3-5 and Hb 8.5-11.0 g/dL; set-up: method as in ref 42 (a number printed in a supplementary file, which may have a reference list of its own: not looked up in the article's list); conditions: highest dose (5 mg) daily, over 4 weeks; cited from earlier work
[2] = system: patients with haemodialysis CKD, Hb 9.5-12.0 g/dL; set-up: method as in ref 43 (a number printed in a supplementary file, which may have a reference list of its own: not looked up in the article's list); conditions: cited from earlier work
[3] = system: subjects with non-dialysis CKD stage 3-5 and Hb < 10.5 g/dL; set-up: method as in ref 39 (a number printed in a supplementary file, which may have a reference list of its own: not looked up in the article's list); conditions: all Molidustat doses (25, 50, 75 mg daily; 25, 50 mg BID), 16 weeks; cited from earlier work
[4] = system: pre-dialysis subjects already on Darbepoetin treatment; set-up: method as in ref 40 (a number printed in a supplementary file, which may have a reference list of its own: not looked up in the article's list); conditions: 16 weeks; cited from earlier work
[5] = system: HIF target genes in Hep3b cells; assay: RT-qPCR of HIF target genes; format: cell-based, human; conditions: 24 hours, 2.5 or 10 μM
Procedure: The upregulation of HIF-α isoforms has multiple downstream effects.[1],[30],[86],[87] To investigate whether the inhibitors have differential effects on HIF target genes we measured their mRNA levels for a set of HIF target genes after 24 hours in Hep3b cells. The panel aimed to cover a small, yet representative, HIF target gene set. […]. […]. page 16:
Cells were lysed using the TRI reagent® (Sigma T9424). RNA was then extracted by phase separation following the manufacturer’s protocol. Extracted RNA was treated with the RNase-free DNase I (DNA-free™ DNA Removal Kit, Applied Biosystems AM1906) to eliminate contaminating DNA. For reverse transcription, 1μg of DNase-treated RNA samples were used for cDNA synthesis using High-Capacity cDNA Reverse Transcription Kit (Thermo Fisher Scientific 4368814). […] Quantitation of 18 relative expression level was analyzed using the ΔΔCT method with HPRT as a reference gene using; statistical analyses of the biological and technical repeats were calculated using StepOne Software (version 2.2.2). […]
Cell seeding and inhibitor treatments were performed in parallel in the same manner as used for the HRE reporter assay (see above). […] Fluorescence signals were measured with an excitation wavelength of 544 nm and emission wavelength of 590 nm using a FLUOstar Omega Microplate Reader (BMG

[6] = system: patients with non-dialysis dependent (NDD) CKD (stage 3a/b, 4, or 5); set-up: method as in ref 33 (a number printed in a supplementary file, which may have a reference list of its own: not looked up in the article's list); conditions: starting 450 mg daily, titrated, 20 weeks; cited from earlier work
[7] = system: patients with stable end-stage renal disease (ESRD) treated with haemodialysis; set-up: method as in ref 35 (a number printed in a supplementary file, which may have a reference list of its own: not looked up in the article's list); conditions: cited from earlier work
[8] = system: patients with ESRD and Hb ≤ 10.0 g/dL; set-up: method as in ref 37 (a number printed in a supplementary file, which may have a reference list of its own: not looked up in the article's list); conditions: cited from earlier work
[9] = system: patients with NDD CKD and Hb < 10.0 g/dL; set-up: method as in ref 38 (a number printed in a supplementary file, which may have a reference list of its own: not looked up in the article's list); conditions: TIW, 9 weeks, cited from earlier work

Q: With `O=C(O)CNC(=O)C1C(=O)N(C2CCCCC2)C(=O)N(C2CCCCC2)C1=O` [GSK1278863] as the compound, how does the Hb increase [1] read?
A: Its Hb increase is ~ 1.0 g/dL.

Q: What about the “mean Hb increase from baseline at week 4” value ([2]; 4 mg daily) of the same compound?
A: Its value is -0.28 g/dL.

Q: What about the “mean Hb increase from baseline at week 4” value ([2]; 6 mg daily) of the same compound?
A: The value was -0.01 g/dL.

Q: And the “mean Hb increase from baseline at week 4” value ([2]; 8 mg daily)?
A: The value was 0.54 g/dL.

Q: And the “mean Hb increase from baseline at week 4” value ([2]; 10 mg daily)?
A: Its value is 0.97 g/dL.

Q: With `O=c1c(-n2ccnn2)c[nH]n1-c1cc(N2CCOCC2)ncn1` [Molidustat] as the compound, how does the Hb increase [3] read?
A: The Hb increase was “at least 1.14 g/dL”.

Q: What about the “mean change in Hb to evaluation period” value [4] of the same compound?
A: The value was 0.46 g/dL.

Q: What does the source list for `O=C(O)CNC(=O)c1ncc(-c2cccc(Cl)c2)cc1O` [Vadadustat]?
A: upregulation of assayed HIF target genes [5]: failed to obviously upregulate assayed HIF target genes; subjects with Hb increase ≥ 1.2 g/dL from baseline or mean Hb ≥ 11.0 g/dL during last 2 weeks of treatment [6]: 55%

Q: Which results are given for `Cc1nc(C(=O)NCC(=O)O)c(O)c2ccc(Oc3ccccc3)cc12` [FG-4592]?
A: subjects with Hb increase ≥ -0.5 g/dL from baseline ([7]; Part 1, 6-week treatment, Roxadustat 1.5-2.0 mg/kg pool versus Epoetin Alfa arm): 79%; average Roxadustat for Hb level maintenance (mean Hb ≥ 11.0 g/dL during last 4 weeks of treatment) ([7]; Part 2, 19-week treatment): 1.68 ± 0.65 mg/kg TIW; subjects with Hb increase ≥ 1 g/dL (Hb response) from baseline ([8]; all Roxadustat treated subjects, 12 weeks): 96%; median time to Hb response ([8]; each cohort): 3 weeks; subjects with Hb increase ≥ 1 g/dL from baseline ([9]; high-dose cohort): 87.1%; subjects with Hb increase ≥ 1 g/dL from baseline ([9]; low-dose cohort): 80%

Reference: publication PMC5802278, “Molecular and cellular mechanisms of HIF prolyl hydroxylase inhibitors in clinical trials” (Chemical Science, 2017)
